Measured values as given in patent US20260078108A1, “SOLID FORMS OF A ROCK INHIBITOR” (REDX PHARMA PLC, priority 2022, published 2026).

What was measured:
[1] = target: T1, CB1 (h) (Homo sapiens, UniProt P21554); assay: CEREP panel CB1 (h) agonist effect, cAMP HTRF; assay type: cell-based; settings: HCl salt tested, CHO cells
T1 construct: expressed in transfected cells; host or cells: CHO cells
From the text: (§1) The use of in vitro pharmacological screening against a diverse range of targets (receptors, ion channels, enzymes and transporters) is used to identify undesirable off-target activity that may cause adverse drug reactions in humans. Screening panels (e.g. SafetyScreen44™ Panel, Eurofins) comprise a selection of off-targets linked with known issues in humans that could hinder or halt the development of drug candidates or market withdrawal if discovered after a drug is approved. The HCl salts of the S enantiomer and the R enantiomer of compound A were tested against a panel of such targets.
(§2) The tests were carried out according to the methods described in the following tables and indicated literature references.

[2] = target: T1, CB1 (h); assay: CEREP panel CB1 (h) antagonist effect, cAMP HTRF; assay type: cell-based; settings: HCl salt tested; CHO cells, CP 55940 (1 nM)
From the text: as §1, §2

[3] = target: T2, CB2 (h) (Homo sapiens, UniProt P34972); assay: CEREP panel CB2 (h) agonist effect, cAMP HTRF; assay type: cell-based; settings: HCl salt tested, CHO cells
T2 construct: expressed in transfected cells; host or cells: CHO cells
From the text: as §1, §2

[4] = target: T3, M1 (h) (Homo sapiens, UniProt P11229); assay: CEREP panel M1 (h) agonist effect, intracellular Ca2+ fluorimetry; assay type: cell-based; settings: HCl salt tested, CHO cells
T3 construct: expressed in transfected cells; host or cells: CHO cells
T3 sequence (P11229 1-460): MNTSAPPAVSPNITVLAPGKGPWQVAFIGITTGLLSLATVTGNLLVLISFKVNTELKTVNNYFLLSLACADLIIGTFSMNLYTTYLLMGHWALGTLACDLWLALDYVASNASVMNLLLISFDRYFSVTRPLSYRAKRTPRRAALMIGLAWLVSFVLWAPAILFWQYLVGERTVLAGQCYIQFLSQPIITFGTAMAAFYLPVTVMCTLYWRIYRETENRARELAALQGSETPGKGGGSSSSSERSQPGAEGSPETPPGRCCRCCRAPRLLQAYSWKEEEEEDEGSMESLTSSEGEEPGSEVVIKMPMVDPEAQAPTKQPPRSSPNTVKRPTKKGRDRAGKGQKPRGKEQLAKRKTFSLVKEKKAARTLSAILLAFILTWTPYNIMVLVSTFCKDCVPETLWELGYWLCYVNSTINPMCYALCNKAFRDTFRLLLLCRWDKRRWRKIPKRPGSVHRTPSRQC
From the text: as §1, §2

[5] = target: T3, M1 (h); assay: CEREP panel M1 (h) antagonist effect, intracellular Ca2+ fluorimetry; assay type: cell-based; settings: HCl salt tested; CHO cells, acetylcholine (10 nM)
From the text: as §1, §2

[6] = target: T4, M2 (h) (Homo sapiens, UniProt P08172); assay: CEREP panel M2 (h) antagonist effect, cAMP HTRF; assay type: cell-based; settings: HCl salt tested; CHO cells, acetylcholine (300 nM)
T4 construct: expressed in transfected cells; host or cells: CHO cells
T4 sequence (P08172 1-466): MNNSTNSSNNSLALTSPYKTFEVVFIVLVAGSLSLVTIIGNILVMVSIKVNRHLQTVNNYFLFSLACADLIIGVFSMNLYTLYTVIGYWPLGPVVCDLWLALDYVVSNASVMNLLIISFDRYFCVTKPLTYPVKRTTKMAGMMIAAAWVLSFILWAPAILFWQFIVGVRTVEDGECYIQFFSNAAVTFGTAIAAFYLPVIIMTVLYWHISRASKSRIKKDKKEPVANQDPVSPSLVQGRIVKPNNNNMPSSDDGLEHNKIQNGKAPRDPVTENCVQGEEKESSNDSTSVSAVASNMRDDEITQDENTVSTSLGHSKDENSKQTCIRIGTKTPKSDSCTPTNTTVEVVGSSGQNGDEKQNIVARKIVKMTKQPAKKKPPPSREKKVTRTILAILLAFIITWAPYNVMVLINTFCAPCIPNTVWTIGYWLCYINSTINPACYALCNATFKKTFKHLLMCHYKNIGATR
From the text: as §1, §2

[7] = target: T5, μ (MOP) (h) (Homo sapiens, UniProt P35372); assay: CEREP panel mu (MOP) (h) antagonist effect, cAMP HTRF; assay type: cell-based; settings: HCl salt tested; CHO cells, DAMGO (10 nM)
T5 construct: expressed in transfected cells; host or cells: CHO cells
From the text: as §1, §2

[8] = target: T6, Serotonin transporter (Homo sapiens, UniProt P31645); assay: CEREP panel serotonin transporter uptake (h), [3H]5HT incorporation; assay type: cell-based; settings: HCl salt tested; [3H]5HT incorporation in cells
T6 construct: expressed in transfected cells
From the text: as §1, §2

[9] = target: ROCK2 (Homo sapiens, UniProt O75116); assay: Activity against kinase ROCK2; assay type: biochemical; settings: comparison of enantiomers
ROCK2, sequence (O75116 whole entry, species assumed): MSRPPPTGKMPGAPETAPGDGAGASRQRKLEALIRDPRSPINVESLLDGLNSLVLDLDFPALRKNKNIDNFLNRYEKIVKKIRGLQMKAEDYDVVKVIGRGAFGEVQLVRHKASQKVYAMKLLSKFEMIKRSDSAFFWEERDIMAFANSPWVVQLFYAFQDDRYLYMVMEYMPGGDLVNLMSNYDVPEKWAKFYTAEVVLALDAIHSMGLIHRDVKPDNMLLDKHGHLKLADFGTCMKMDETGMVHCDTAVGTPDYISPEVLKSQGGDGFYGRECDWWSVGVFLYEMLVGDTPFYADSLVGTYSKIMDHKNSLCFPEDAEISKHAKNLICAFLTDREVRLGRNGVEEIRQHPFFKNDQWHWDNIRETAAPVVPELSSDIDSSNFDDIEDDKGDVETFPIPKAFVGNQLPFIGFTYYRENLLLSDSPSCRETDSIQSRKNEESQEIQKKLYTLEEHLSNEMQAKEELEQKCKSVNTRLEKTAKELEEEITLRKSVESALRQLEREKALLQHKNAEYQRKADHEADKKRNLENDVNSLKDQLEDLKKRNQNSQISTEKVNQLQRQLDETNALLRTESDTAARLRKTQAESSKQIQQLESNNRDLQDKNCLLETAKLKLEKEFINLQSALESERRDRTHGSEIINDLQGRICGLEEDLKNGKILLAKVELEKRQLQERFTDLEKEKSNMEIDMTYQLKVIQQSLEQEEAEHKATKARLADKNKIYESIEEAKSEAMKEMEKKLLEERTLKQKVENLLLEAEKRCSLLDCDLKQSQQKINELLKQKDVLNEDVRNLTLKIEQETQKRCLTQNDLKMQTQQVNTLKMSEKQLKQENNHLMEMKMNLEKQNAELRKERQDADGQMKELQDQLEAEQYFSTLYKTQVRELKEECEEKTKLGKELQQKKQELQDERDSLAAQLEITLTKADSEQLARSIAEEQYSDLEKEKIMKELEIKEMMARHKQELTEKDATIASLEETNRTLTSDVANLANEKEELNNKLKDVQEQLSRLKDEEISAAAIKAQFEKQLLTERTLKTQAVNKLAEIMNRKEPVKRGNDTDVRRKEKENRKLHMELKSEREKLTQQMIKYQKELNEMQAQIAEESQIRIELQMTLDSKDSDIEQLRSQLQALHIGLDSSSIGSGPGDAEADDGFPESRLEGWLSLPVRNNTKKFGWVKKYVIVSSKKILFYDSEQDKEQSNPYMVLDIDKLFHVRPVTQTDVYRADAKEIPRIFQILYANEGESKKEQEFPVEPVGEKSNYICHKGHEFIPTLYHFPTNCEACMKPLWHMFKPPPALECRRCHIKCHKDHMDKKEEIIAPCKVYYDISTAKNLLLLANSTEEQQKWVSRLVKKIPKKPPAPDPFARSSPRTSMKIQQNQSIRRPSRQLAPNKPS

T1 sequence (P21554 whole entry): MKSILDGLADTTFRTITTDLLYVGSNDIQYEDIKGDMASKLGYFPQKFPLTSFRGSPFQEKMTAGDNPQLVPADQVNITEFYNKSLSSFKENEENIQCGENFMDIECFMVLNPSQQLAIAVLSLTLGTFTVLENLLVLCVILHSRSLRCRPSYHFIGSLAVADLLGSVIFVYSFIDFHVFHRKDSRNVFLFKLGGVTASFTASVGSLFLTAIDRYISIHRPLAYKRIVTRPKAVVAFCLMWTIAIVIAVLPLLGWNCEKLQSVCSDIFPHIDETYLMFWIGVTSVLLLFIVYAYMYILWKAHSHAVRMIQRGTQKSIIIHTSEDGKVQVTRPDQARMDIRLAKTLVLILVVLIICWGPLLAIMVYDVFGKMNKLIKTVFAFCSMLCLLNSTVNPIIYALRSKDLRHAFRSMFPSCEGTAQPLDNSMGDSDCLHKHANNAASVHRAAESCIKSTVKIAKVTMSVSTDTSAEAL
T5 sequence (P35372 whole entry): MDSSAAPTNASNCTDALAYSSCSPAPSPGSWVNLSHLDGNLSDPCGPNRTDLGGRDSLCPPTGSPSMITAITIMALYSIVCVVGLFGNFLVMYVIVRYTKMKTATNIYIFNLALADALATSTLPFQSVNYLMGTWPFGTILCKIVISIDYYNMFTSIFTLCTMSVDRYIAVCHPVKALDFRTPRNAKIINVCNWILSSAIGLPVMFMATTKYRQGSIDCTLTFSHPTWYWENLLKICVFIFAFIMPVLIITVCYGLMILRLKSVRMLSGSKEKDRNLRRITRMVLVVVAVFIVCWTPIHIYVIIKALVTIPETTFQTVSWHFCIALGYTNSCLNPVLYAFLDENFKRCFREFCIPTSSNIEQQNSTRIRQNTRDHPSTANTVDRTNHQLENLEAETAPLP
T6 sequence (P31645 whole entry): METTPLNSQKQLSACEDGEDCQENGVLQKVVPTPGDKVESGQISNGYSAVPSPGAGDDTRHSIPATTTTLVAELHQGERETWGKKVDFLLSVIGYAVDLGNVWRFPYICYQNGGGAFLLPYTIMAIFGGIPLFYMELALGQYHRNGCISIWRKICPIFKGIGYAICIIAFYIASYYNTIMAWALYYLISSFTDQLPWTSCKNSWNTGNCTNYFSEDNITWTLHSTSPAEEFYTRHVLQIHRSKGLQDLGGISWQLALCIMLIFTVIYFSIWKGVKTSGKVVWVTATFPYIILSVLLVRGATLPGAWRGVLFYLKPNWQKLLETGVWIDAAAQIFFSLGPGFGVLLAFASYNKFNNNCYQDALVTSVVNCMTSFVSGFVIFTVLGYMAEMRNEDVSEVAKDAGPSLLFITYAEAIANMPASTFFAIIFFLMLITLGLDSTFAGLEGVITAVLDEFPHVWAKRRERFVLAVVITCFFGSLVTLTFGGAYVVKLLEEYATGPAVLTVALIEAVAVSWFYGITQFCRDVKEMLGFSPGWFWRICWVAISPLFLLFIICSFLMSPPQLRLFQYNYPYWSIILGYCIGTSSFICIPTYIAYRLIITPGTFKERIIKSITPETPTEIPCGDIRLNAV
T2 sequence (P34972 whole entry): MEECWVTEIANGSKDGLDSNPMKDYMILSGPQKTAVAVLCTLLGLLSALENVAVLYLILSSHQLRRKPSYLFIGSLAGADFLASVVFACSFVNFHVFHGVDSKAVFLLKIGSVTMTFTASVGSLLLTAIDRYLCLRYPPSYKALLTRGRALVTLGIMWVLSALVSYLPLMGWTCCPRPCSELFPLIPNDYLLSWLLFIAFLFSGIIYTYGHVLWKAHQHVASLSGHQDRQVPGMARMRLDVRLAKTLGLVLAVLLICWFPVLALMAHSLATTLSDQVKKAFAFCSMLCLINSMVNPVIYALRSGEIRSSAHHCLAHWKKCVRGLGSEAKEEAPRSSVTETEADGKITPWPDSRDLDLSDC

Structure (SMILES): NCc1ccc(C(=O)Nc2ccncc2F)cc1-c1cccc(C(=O)Nc2ccc(SC[C@@H]3CCOC3=O)cc2)c1 [R-enantiomer]
- CB1 (h) (agonist effect) (EC50) [1]: Inactive
- CB1 (h) (antagonist effect) (IC50) [2]: Inactive
- CB2 (h) (agonist effect) (EC50) [3]: Inactive
- M1 (h) (agonist effect) (EC50) [4]: Inactive
- IC50 [5]: 0.77 µM
- IC50 [6]: 6.2 µM
- mu (MOP) (h) (antagonist effect) (IC50) [7]: Inactive
- IC50 [8]: 6 µM
- Difference between activities of S- and R-enantiomer against ROCK2 [9]: no statistically meaningful difference

Structure (SMILES): NCc1ccc(C(=O)Nc2ccncc2F)cc1-c1cccc(C(=O)Nc2ccc(SC[C@H]3CCOC3=O)cc2)c1 [S-enantiomer]
- CB1 (h) (agonist effect) (EC50) [1]: Inactive
- CB1 (h) (antagonist effect) (IC50) [2]: Inactive
- CB2 (h) (agonist effect) (EC50) [3]: Inactive
- M1 (h) (agonist effect) (EC50) [4]: Inactive
- IC50 [5]: > 30 µM
- IC50 [6]: > 100 µM
- mu (MOP) (h) (antagonist effect) (IC50) [7]: Inactive
- IC50 [8]: 11 µM
- Difference between activities of S- and R-enantiomer against ROCK2 [9]: no statistically meaningful difference
